Measured values as given in US20040127492A1 (Pharmacia Corporation, priority 2002, published 2004).
Where two headings read alike, the source gives them in different places.

How the values were obtained:
[1] = biological target: MAPKAPK2 (MK-2) (Homo sapiens, UniProt P49137); assay: Determination of MK-2 IC50 (HSP-peptide phosphorylation, anion exchange resin capture assay); type: biochemical
Method in brief: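 Radiometric peptide assay: 15 nM p38α-activated MK-2, HSP-peptide, 0.03 mM ATP with [γ33P]ATP, 2% DMSO, pH 7.5, 30° C for 30 min; unreacted ATP removed on AG 1×8 resin before counting. Six concentrations in ten-fold steps, each in triplicate, gave IC50 in μM.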

[2] = biological target: MK-3 (Homo sapiens, UniProt Q16644); assay: MK-3 inhibition IC50 (similar method to MK-2, with appropriate modifications); type: biochemical
Description: In practice, the selectivity of a cyclic pyrazole MK-2 inhibitor varies depending upon the condition under which the test is performed and on the inhibitors being tested. However, for the purposes of this specification, the selectivity of a cyclic pyrazole MK-2 inhibitor inhibitor can be measured as a ratio of the in vitro or in vivo IC50 value for inhibition of MK-3, divided by the IC50 value for inhibition of MK-2 (IC50 MK-3/IC50 MK-2). […] The MK-2 or MK-3 inhibiting activity of any of the compounds described herein can be determined by any one of several methods that are well known to those having skill in the art of enzyme activity testing. […] A similar method, with appropriate modifications, Can be used to measure MK-3 inhibitory activity. In addition, the efficacy of one of the present MK-2 inhibiting compounds in therapeutic applications can be determined by testing for inhibition of TNFα production in cell culture and in animal model assays.

[3] = Table 1, phenoxypyrazole MK-2 inhibitors, read-out: MK-2 Avg, IC50
[4] = Table 1, phenoxypyrazole MK-2 inhibitors, read-out: MK-3 Avg. IC50
[5] = Table 2, pyrazolylpyrazole MK-2 inhibitors, read-out: MK-2 Avg. IC50
[6] = Table 2, pyrazolylpyrazole MK-2 inhibitors, read-out: MK-3 Avg. IC50

Chain of MK-3 (Q16644 whole entry, species assumed): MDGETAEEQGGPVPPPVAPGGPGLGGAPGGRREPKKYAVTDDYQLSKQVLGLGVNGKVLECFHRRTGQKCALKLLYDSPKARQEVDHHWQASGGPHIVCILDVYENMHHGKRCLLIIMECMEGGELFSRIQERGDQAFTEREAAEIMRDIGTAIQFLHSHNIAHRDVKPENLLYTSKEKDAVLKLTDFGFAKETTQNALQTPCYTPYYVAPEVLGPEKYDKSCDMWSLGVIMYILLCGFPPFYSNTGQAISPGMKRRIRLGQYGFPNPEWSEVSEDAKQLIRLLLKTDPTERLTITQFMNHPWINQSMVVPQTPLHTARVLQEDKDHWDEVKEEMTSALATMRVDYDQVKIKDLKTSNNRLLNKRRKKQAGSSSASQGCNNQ
Chain of MAPKAPK2 (MK-2) (P49137 whole entry, species assumed): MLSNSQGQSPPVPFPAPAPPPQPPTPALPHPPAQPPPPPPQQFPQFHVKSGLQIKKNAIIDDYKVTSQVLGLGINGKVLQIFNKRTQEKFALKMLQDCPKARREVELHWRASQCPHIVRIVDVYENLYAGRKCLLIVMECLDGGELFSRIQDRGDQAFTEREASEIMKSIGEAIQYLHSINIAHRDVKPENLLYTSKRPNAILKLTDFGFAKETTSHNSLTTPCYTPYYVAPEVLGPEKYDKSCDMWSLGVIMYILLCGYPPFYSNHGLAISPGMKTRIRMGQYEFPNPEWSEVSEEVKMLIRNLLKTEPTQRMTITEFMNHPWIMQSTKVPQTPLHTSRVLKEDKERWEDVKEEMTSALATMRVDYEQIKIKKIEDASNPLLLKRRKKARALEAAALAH

## CNc1ccc(-c2cc3c(cc2O)CCc2c-3nn(CCCN)c2C(=O)O)cc1 [Example 21]
[1]; [3]
  IC50: 17.7 µM
[2]; [4]
  IC50: > 200 µM

## NCCCn1nc2c(c1C(=O)O)CCc1cnc(-c3cnc4ccccc4c3)nc1-2 [Example 1]
[1]; Table 4, pyrimidylpyrazole MK-2 inhibitors, read-out: MK-2 Avg. IC50
  IC50: 0.0761 µM
[2]; Table 4, pyrimidylpyrazole MK-2 inhibitors, read-out: NK-3 Avg. IC50
  IC50: 1.93 µM

## NS(=O)(=O)c1ccc(-n2nc(C(=O)O)c3c2-c2cn[nH]c2CC3)cc1 [Example 40]
[1]; [5]
  IC50: 145 µM
[2]; [6]
  IC50: ≥ 200 µM

## NCCCCn1nc2c(c1C(=O)O)CCc1[nH]ncc1-2 [Example 10]
[1]; [5]
  IC50: 10.1 µM
[2]; [6]
  IC50: ≥ 200 µM

## COc1cc2c(cc1OC)-c1n[nH]c(C(=O)O)c1CC2 [Example 173]
[1]; [3]
  IC50: > 200 µM
[2]; [4]
  IC50: > 200 µM

## NCCn1nc2c(c1C(=O)O)CCc1cc(O)c(-c3cccc([N+](=O)[O-])c3)cc1-2 [Example 2]
[1]; [3]
  IC50: 0.845 µM
[2]; [4]
  IC50: 40.9 µM

## CSc1n[nH]c2c1-c1nn(CCCN)c(C(=O)O)c1CC2 [Example 1]
[1]; [5]
  IC50: 1.06 µM
[2]; [6]
  IC50: 47 µM

## NCCCn1nc2c(c1C(=O)O)CCc1cc(O)ccc1-2 [Example 4]
[1]; [3]
  IC50: 2.09 µM
[2]; [4]
  IC50: 37.9 µM

## COc1cc2c(cc1-c1cccc(C#N)c1)-c1nn(CCCNC(=O)OC(C)(C)C)c(C(=O)O)c1CC2 [Example 38]
[1]; [3]
  IC50: 56.2 µM
[2]; [4]
  IC50: > 200 µM

## C=CCSc1n[nH]c2c1-c1nn(CCCN)c(C(=O)O)c1CC2 [Example 5]
[1]; [5]
  IC50: 2.84 µM
[2]; [6]
  IC50: 41.4 µM

## O=C1NC(CNCCc2cccs2)Cn2nc3c(c21)CCc1cnccc1-3 (stereo not shown) [Example 73]
[1]; read-out: MK-2 Avg. IC50
  IC50: 0.924 µM
[2]; read-out: MK-3 Avg. IC50
  IC50: 27.8 µM

## NCCCn1nc2c(c1C(=O)O)CCc1cnccc1-2 [Example 64]
[1]; read-out: MK-2 Avg. IC50
  IC50: 0.62 µM
[2]; read-out: MK-3 Avg. IC50
  IC50: 22.8 µM

## NCCCn1nc2c(c1C(=O)O)CCc1cc(O)c(-c3ccccc3Cl)cc1-2 [Example 30]
[1]; [3]
  IC50: 29.8 µM
[2]; [4]
  IC50: 60.7 µM

## O=C(O)c1c2c(nn1CCCNS(=O)(=O)Cc1ccccc1)-c1cc(-c3cnc4ccccc4c3)ncc1CC2 [Example 48]
[1]; read-out: MK-2 Avg. IC50
  IC50: 0.374 µM
[2]; read-out: MK-3 Avg. IC50
  IC50: 4.51 µM

## COc1cc2c(cc1CCc1ccc(Cl)cc1)-c1nn(CCCNC(=O)OC(C)(C)C)c(C(=O)O)c1CC2 [Example 40]
[1]; [3]
  IC50: 59.6 µM
[2]; [4]
  IC50: > 200 µM

## O=C1NCCn2nc3c(c21)CCc1cnc(/C=C/c2ccc(F)c(F)c2)cc1-3 [Example 7]
[1]; Table 5, other cyclic pyrazole MK-2 inhibiting compounds, read-out: MK-2 Avg. IC50
  IC50: 0.623 µM
[2]; Table 5, other cyclic pyrazole MK-2 inhibiting compounds, read-out: MK-3 Avg. IC50
  IC50: > 20 µM

## NC(=O)c1nn(-c2ccccc2)c2c1CCc1c-2cnn1Cc1ccccc1 [Example 53]
[1]; [5]
  IC50: ≥ 200 µM
[2]; [6]
  IC50: ≥ 200 µM

## CCOC(=O)Cn1nc2c(c1C(=O)OCC)CCc1[nH]ncc1-2 [Example 113]
[1]; [5]
  IC50: ≥ 200 µM
[2]; [6]
  IC50: ≥ 200 µM

## CS(=O)(=O)c1cccc(-c2cc3c(cc2O)CCc2c-3nn(CCCN)c2C(=O)O)c1 [Example 16]
[1]; [3]
  IC50: 12.9 µM
[2]; [4]
  IC50: > 200 µM

## O=C1NC(CO)Cn2nc3c(c21)CCc1cnc(-c2cnc4ccccc4c2)cc1-3 (stereo not shown) [Example 9]
[1]; read-out: MK-2 Avg. IC50
  IC50: 0.0313 µM
[2]; read-out: MK-3 Avg. IC50
  IC50: 5.68 µM

## CONC(=O)c1[nH]nc2c1CCc1[nH]ncc1-2 [Example 39]
[1]; [5]
  IC50: 141 µM
[2]; [6]
  IC50: 180 µM

## CCOC(=O)c1c2c(nn1CCCNCCc1ccsc1)-c1cn[nH]c1CC2 [Example 36]
[1]; [5]
  IC50: 133 µM
[2]; [6]
  IC50: ≥ 200 µM

## O=C1NCCCn2nc3c(c21)CCc1[nH]ncc1-3 [Example 13]
[1]; [5]
  IC50: 19.6 µM
[2]; [6]
  IC50: 144 µM

## NCCCn1nc2c(c1C(=O)O)CCc1cc(O)c(-c3ccncc3)cc1-2 [Example 23]
[1]; [3]
  IC50: 18.8 µM
[2]; [4]
  IC50: > 200 µM

## NCCCn1nc2c(c1C(=O)O)CCc1cnc(-c3cnc4ccccc4c3)cc1-2 [Example 1]
[1]; read-out: MK-2 Avg. IC50
  IC50: 0.00946 µM
[2]; read-out: MK-3 Avg. IC50
  IC50: 0.0354 µM

## CC(C)(CCc1cc2c(cc1O)CCc1c-2nn(CCCN)c1C(=O)O)CC(=O)O [Example 26]
[1]; [3]
  IC50: 22.2 µM
[2]; [4]
  IC50: 135 µM

## O=C1NCCn2nc3c(c21)CCc1cnc(N2Cc4ccccc4C2)cc1-3 [Example 157]
[1]; read-out: MK-2 Avg. IC50
  IC50: 9.58 µM
[2]; read-out: MK-3 Avg. IC50
  IC50: 45.4 µM

## NCCCn1nc2c(c1C(=O)NO)CCc1cnc(-c3cnc4ccccc4c3)cc1-2 [Example 28]
[1]; read-out: MK-2 Avg. IC50
  IC50: 0.162 µM
[2]; read-out: MK-3 Avg. IC50
  IC50: 4.67 µM

## COc1cc2c(cc1OC)-c1c(c(C(N)=O)nn1-c1ccc(S(N)(=O)=O)cc1)CC2 [Example 175]
[1]; [3]
  IC50: > 200 µM
[2]; [4]
  IC50: > 200 µM
